Assay results published in ChEMBL document CHEMBL4033641, “Design, synthesis and anticancer potential of NSC-319745 hydroxamic acid derivatives as DNMT and HDAC inhibitors” (Eur J Med Chem, 2017).

Assays:
[1] = test system: A549; assay: Antiproliferative activity against human A549 cells after 72 hrs by MTT assay; format: functional, cell-based; conditions: A549, 72 h
[2] = target: DNA (cytosine-5)-methyltransferase 1 (Homo sapiens) (UniProt P26358); assay: Inhibition of DNMT1 (unknown origin) at 100 uM using poly(dI-dC).poly(dI-dC) as substrate preincubated for 15 mins followed by substrate/[3H]-SAM addition measured after 120 mins by liquid scintillation counting analysis
Chain of DNA (cytosine-5)-methyltransferase 1 (Homo sapiens) (P26358 whole entry): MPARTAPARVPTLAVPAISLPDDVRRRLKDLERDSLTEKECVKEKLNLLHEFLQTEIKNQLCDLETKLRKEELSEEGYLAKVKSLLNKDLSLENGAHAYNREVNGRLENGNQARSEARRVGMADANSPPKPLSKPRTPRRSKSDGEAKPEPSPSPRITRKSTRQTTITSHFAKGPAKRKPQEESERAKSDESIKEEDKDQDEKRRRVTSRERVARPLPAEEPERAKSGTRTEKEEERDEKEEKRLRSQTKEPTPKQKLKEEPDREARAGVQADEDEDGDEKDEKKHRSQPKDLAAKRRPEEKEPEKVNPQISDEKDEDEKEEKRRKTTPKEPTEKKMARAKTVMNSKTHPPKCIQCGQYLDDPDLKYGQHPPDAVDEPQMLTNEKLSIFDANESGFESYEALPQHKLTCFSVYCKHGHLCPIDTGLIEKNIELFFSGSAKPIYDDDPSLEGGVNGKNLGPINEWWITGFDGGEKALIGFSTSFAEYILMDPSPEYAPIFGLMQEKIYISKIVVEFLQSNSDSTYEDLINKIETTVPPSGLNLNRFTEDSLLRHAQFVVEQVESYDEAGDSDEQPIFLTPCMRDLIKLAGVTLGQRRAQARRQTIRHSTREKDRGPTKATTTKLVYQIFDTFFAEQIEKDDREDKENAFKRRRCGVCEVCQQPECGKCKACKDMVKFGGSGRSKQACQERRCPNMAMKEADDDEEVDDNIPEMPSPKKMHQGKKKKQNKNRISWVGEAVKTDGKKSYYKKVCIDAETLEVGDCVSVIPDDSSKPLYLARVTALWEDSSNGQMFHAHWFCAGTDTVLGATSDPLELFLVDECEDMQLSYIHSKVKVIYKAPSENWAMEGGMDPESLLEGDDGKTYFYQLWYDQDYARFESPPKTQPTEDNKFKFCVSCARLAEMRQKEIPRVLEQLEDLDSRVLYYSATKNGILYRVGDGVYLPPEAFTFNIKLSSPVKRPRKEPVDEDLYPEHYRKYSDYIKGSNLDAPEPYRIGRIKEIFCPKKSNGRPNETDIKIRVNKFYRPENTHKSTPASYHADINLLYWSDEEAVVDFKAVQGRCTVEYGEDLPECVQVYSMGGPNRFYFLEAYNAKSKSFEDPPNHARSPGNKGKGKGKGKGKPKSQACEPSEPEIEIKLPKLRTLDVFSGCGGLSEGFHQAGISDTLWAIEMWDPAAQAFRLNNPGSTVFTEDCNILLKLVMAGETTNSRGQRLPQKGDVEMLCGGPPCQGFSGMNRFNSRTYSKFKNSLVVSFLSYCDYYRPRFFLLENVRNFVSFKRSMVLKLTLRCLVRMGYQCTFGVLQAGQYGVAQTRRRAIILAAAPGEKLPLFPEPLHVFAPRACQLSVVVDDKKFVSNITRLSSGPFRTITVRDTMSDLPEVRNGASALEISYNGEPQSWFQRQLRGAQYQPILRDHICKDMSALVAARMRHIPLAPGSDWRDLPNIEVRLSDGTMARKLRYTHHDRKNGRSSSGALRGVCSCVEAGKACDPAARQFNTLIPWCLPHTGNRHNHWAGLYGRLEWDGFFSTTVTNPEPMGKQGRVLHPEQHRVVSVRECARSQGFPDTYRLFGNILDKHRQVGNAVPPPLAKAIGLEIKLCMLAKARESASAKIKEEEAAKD

[3] = target: DNMT3A2/3L complex (Homo sapiens) (UniProt Q9Y6K1+Q9UJW3); assay: Inhibition of DNMT3A/3L (unknown origin) at 100 uM using biotinylated DNA oligonucleotides as substrate preincubated for 15 mins followed by substrate/[3H]-SAM addition measured after 4 hrs by liquid scintillation counting analysis; format: protein-complex assay
Chain of DNMT3A2/3L complex (Homo sapiens) (Q9UJW3 whole entry, looked up): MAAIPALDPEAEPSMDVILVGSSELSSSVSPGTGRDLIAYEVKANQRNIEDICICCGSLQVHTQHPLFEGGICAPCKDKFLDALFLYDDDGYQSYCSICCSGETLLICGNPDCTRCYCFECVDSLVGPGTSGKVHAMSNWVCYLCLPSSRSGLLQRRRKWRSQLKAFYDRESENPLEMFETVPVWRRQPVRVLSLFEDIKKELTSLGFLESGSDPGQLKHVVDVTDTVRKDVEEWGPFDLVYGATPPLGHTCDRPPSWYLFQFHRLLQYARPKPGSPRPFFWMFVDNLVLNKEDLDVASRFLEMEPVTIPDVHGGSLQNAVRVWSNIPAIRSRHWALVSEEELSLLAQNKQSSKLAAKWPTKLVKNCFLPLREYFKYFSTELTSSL
Chain of DNMT3A2/3L complex (Homo sapiens) (Q9Y6K1 whole entry, looked up): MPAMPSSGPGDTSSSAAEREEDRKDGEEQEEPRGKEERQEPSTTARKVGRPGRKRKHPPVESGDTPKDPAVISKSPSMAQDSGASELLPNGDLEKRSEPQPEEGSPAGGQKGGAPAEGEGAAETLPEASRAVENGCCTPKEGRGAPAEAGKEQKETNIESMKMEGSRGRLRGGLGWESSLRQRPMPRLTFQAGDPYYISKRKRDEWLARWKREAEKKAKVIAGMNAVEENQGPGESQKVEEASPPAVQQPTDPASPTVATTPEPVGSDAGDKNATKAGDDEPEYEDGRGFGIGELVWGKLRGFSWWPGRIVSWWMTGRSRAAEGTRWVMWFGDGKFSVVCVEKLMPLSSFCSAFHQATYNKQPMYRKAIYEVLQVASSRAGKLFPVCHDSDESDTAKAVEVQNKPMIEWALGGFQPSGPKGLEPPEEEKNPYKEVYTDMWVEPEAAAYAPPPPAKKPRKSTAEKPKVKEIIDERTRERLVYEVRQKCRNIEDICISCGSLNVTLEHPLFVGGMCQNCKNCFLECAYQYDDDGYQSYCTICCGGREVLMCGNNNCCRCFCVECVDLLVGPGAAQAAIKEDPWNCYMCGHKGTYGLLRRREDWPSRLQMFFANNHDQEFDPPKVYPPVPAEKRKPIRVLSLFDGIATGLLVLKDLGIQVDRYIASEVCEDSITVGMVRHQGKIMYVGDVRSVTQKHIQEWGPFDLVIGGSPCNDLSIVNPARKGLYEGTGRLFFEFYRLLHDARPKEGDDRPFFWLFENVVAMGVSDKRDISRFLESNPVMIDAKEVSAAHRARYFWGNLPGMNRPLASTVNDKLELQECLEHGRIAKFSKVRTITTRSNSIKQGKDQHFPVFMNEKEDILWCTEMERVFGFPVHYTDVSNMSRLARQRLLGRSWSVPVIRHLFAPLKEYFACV

[4] = target: DNMT3B-DNMT3L complex (Homo sapiens) (UniProt Q9UBC3+Q9UJW3); assay: Inhibition of DNMT3B/3L (unknown origin) at 100 uM using biotinylated DNA oligonucleotides as substrate preincubated for 15 mins followed by substrate/[3H]-SAM addition measured after 4 hrs by liquid scintillation counting analysis; format: protein-complex assay
Chain of DNMT3B-DNMT3L complex (Homo sapiens) (Q9UJW3 whole entry, looked up, other chains not shown): as the sequence (Q9UJW3 whole entry, looked up) above

[5] = target: Histone deacetylase 1 (Homo sapiens, UniProt Q13547); assay: Inhibition of HDAC1 (unknown origin) preincubated for 15 mins followed by substrate addition measured after 60 mins by fluorescence assay
Chain of Histone deacetylase 1 (Q13547 whole entry): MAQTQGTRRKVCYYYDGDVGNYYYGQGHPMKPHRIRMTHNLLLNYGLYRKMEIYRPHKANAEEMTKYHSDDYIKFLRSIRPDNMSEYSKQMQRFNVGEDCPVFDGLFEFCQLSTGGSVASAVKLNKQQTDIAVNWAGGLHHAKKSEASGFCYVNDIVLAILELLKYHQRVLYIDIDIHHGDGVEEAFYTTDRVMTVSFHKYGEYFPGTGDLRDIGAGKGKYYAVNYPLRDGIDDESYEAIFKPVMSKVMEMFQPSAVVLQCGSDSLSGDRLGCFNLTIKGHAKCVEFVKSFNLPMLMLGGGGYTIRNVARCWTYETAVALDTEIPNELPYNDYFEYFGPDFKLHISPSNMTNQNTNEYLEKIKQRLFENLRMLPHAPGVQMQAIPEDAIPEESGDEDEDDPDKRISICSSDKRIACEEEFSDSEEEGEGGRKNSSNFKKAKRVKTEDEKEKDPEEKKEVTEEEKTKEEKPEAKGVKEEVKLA

[6] = target: T1, Protein deacetylase HDAC6 (Homo sapiens, UniProt Q9UBN7); assay: Inhibition of HDAC6 (unknown origin) preincubated for 15 mins followed by substrate addition measured after 60 mins by fluorescence assay
T1 sequence (Q9UBN7 whole entry): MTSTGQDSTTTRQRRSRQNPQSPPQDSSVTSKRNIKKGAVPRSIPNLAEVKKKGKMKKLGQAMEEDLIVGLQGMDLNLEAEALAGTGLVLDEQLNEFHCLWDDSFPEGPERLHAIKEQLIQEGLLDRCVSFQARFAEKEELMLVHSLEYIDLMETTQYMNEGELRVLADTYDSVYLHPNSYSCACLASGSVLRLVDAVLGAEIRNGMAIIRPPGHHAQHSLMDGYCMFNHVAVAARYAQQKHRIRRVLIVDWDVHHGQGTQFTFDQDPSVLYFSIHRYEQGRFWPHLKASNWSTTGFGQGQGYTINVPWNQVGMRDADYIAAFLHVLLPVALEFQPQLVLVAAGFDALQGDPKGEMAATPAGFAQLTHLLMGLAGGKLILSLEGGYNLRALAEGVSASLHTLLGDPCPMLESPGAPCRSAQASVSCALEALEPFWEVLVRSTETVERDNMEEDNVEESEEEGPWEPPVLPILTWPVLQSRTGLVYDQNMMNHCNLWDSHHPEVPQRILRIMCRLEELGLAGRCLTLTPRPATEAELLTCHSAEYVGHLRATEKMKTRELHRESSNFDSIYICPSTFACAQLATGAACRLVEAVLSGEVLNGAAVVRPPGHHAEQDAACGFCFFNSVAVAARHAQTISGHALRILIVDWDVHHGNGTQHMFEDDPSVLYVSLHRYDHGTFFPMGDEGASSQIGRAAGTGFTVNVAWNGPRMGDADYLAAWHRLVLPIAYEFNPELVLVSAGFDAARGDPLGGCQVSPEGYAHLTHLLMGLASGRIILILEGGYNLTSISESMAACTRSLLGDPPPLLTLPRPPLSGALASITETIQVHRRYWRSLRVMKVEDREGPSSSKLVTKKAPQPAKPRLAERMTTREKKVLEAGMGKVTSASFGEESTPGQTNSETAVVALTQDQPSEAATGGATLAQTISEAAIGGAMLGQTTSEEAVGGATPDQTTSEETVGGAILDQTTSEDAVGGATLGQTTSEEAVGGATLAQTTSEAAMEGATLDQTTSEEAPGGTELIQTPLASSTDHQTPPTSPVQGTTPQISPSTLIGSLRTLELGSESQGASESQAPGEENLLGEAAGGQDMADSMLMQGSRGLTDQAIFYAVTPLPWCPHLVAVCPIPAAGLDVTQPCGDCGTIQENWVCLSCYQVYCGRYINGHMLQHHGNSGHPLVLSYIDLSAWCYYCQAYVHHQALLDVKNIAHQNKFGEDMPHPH

[7] = test system: K562; assay: Antiproliferative activity against human K562 cells after 72 hrs by MTT assay; format: functional, cell-based; conditions: K562, 72 h
[8] = test system: U-937; assay: Antiproliferative activity against human U937 cells after 72 hrs by MTT assay; format: functional, cell-based; conditions: U-937, 72 h
[9] = test system: HCT-116; assay: Antiproliferative activity against human HCT116 cells after 72 hrs by MTT assay; format: functional, cell-based; conditions: HCT-116, 72 h
[10] = test system: HepG2; assay: Antiproliferative activity against human HepG2 cells after 72 hrs by MTT assay; format: functional, cell-based; conditions: HepG2, 72 h
[11] = test system: HeLa; assay: Antiproliferative activity against human HeLa cells after 72 hrs by MTT assay; format: functional, cell-based
[12] = test system: U-937; assay: Induction of apoptosis in human U937 cells assessed as viable cells at 0.5 uM after 48 hrs by Annexin V-FITC/PI staining based flow cytometry (reference value: 99.6%); format: functional; conditions: U-937, 48 h, read-out: Activity
[13] = test system: U-937; assay: Induction of apoptosis in human U937 cells assessed as early apoptotic cells at 0.5 uM after 48 hrs by Annexin V-FITC/PI staining based flow cytometry (reference value: 0.140%); format: functional
[14] = test system: U-937; assay: Induction of apoptosis in human U937 cells assessed as late apoptotic cells at 0.5 uM after 48 hrs by Annexin V-FITC/PI staining based flow cytometry (reference value: 0.279%); format: functional
[15] = test system: U-937; assay: Induction of apoptosis in human U937 cells assessed as necrotic cells at 0.5 uM after 48 hrs by Annexin V-FITC/PI staining based flow cytometry (reference value: 0%); format: functional
[16] = test system: U-937; assay: Induction of apoptosis in human U937 cells assessed as viable cells at 1 uM after 48 hrs by Annexin V-FITC/PI staining based flow cytometry (reference value: 99.6%); format: functional; conditions: U-937, 48 h, read-out: Activity
[17] = test system: U-937; assay: Induction of apoptosis in human U937 cells assessed as early apoptotic cells at 1 uM after 48 hrs by Annexin V-FITC/PI staining based flow cytometry (reference value: 0.140%); format: functional
[18] = test system: U-937; assay: Induction of apoptosis in human U937 cells assessed as late apoptotic cells at 1 uM after 48 hrs by Annexin V-FITC/PI staining based flow cytometry (reference value: 0.279%); format: functional
[19] = test system: U-937; assay: Induction of apoptosis in human U937 cells assessed as necrotic cells at 1 uM after 48 hrs by Annexin V-FITC/PI staining based flow cytometry (reference value: 0%); format: functional
[20] = test system: U-937; assay: Induction of apoptosis in human U937 cells assessed as viable cells at 2.5 uM after 48 hrs by Annexin V-FITC/PI staining based flow cytometry (reference value: 99.6%); format: functional; conditions: U-937, 48 h, read-out: Activity
[21] = test system: U-937; assay: Induction of apoptosis in human U937 cells assessed as early apoptotic cells at 2.5 uM after 48 hrs by Annexin V-FITC/PI staining based flow cytometry (reference value: 0.140%); format: functional
[22] = test system: U-937; assay: Induction of apoptosis in human U937 cells assessed as late apoptotic cells at 2.5 uM after 48 hrs by Annexin V-FITC/PI staining based flow cytometry (reference value: 0.279%); format: functional
[23] = test system: U-937; assay: Induction of apoptosis in human U937 cells assessed as necrotic cells at 2.5 uM after 48 hrs by Annexin V-FITC/PI staining based flow cytometry (reference value: 0%); format: functional
[24] = test system: Salmonella typhimurium; assay: Genotoxicity in Salmonella typhimurium TA97 at 50 times IC50 by Ames test; format: toxicity; conditions: salmonella enterica subsp. enterica serovar typhimurium
[25] = test system: Salmonella typhimurium; assay: Genotoxicity in Salmonella typhimurium TA98 at 50 times IC50 by Ames test; format: toxicity; conditions: salmonella enterica subsp. enterica serovar typhimurium
[26] = test system: Salmonella typhimurium; assay: Genotoxicity in Salmonella typhimurium TA102 at 50 times IC50 by Ames test; format: toxicity; conditions: salmonella enterica subsp. enterica serovar typhimurium
[27] = test system: Salmonella typhimurium; assay: Genotoxicity in Salmonella typhimurium TA1535 at 50 times IC50 by Ames test; format: toxicity; conditions: salmonella enterica subsp. enterica serovar typhimurium

With COc1ccc(Cl)cc1C(=O)NCCc1ccc(/C=C/C(=O)NO)cc1 the IC50 [1] was 12.5 µM, the inhibition [2] was 39.8 to 40% and the inhibition [3] was 3.98%. The inhibition [4] was 10.6%, the IC50 [5] was 0.0192 µM and the IC50 [6] was 0.012 µM. The IC50 [7] was 2.75 µM, the IC50 [8] was 0.19 µM and the IC50 [9] was 5.39 µM. For the same molecule, the IC50 [10] was 5.43 µM, the IC50 [11] was 10.6 µM and the viability at 0.5 µM [12] was 84%. The Activity [13] was 6.9%, the Activity [14] was 9.11% and the Activity [15] was 0.02%. For the same molecule, the viability at 1 µM [16] was 52.8%, the Activity [17] was 10.1% and the Activity [18] was 36.4%. The Activity [19] was 0.942%, the viability at 2.5 µM [20] was 0.365% and the Activity [21] was 41.8%. The Activity [22] was 57.8%, the Activity [23] was 0.02% and the Activity [24] was “Non-Toxic”. The Activity [25] was “Non-Toxic”, the Activity [26] was “Non-Toxic” and the Activity [27] was “Non-Toxic”.
